{"source": "ChEMBL document CHEMBL6083204", "about": "“Synthesis of a celastrol derivative as a cancer stem cell inhibitor through regulation of the STAT3 pathway for treatment of ovarian cancer” (RSC Med Chem, 2024)", "key": {"[1]": {"test": "Cytotoxicity against human IOSE80 cells assessed as inhibition of cell growth incubated for 72 hrs by MTT assay", "type": "toxicity, cell-based"}, "SK-OV-3 [2]": {"tested_on": "SK-OV-3", "test": "Inhibition of colony formation in human SK-OV-3 cells assessed as reduction in colony number incubated for 10 days by crystal violet staining based analysis", "type": "functional, cell-based", "conditions": "time 10.0 day"}, "SK-OV-3 [3]": {"tested_on": "SK-OV-3", "test": "Inhibition of colony formation in human SK-OV-3 cells assessed as reduction in colony size incubated for 10 days by crystal violet staining based analysis", "type": "functional, cell-based", "conditions": "time 10.0 day"}, "A2780 [4]": {"tested_on": "A2780", "test": "Inhibition of colony formation in human A2780 cells assessed as reduction in colony size incubated for 10 days by crystal violet staining based analysis", "type": "functional, cell-based", "conditions": "time 10.0 day"}, "SK-OV-3 [5]": {"tested_on": "SK-OV-3", "test": "Inhibition of human SK-OV-3 cells spheroid formation assessed as reduction in spheroid size at 0.1 to 0.4 uM incubated for 10 days by inverted microscopic analysis", "type": "functional, cell-based", "conditions": "dose 0.1-0.4 µM, time 10.0 day"}, "A2780 [6]": {"tested_on": "A2780", "test": "Antiproliferative activity against human A2780 cells assessed as decrease in ALDH positive cells at 0.4 uM incubated for 24 hrs by ALDEFLUOR staining based flow cytometry (reference value: 32.5 %)", "type": "functional", "set-up": "scale not given: the % may be the effect or the level left"}, "[7]": {"biological_target": "Signal transducer and activator of transcription 3 (Homo sapiens) (UniProt P40763)", "sequence (P40763 whole entry)": "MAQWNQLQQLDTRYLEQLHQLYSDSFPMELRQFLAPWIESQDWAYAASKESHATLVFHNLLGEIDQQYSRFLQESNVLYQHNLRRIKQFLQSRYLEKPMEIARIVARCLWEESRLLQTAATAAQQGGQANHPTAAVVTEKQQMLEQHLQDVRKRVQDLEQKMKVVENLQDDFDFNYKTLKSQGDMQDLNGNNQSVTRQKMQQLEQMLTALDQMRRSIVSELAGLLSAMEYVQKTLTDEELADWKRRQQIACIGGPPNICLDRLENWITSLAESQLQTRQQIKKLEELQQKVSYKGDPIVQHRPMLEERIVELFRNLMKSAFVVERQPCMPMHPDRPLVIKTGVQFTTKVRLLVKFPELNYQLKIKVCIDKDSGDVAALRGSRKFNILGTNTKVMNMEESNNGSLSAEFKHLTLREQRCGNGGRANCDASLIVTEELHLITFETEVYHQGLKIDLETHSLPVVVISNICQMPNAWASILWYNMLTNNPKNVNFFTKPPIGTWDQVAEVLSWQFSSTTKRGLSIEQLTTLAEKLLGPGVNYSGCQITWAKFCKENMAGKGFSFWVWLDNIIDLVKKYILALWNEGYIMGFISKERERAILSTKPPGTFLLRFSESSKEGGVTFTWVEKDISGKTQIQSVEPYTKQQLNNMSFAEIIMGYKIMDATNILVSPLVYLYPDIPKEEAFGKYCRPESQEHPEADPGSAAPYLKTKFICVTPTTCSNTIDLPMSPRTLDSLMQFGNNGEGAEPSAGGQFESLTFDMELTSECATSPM", "test": "Inhibition of STAT3 in human SK-OV-3 cells assessed as downregulation of STAT3 phosphorylation at Ser727 residue incubated for 24 hrs by Western blotting analysis", "type": "cell-based"}, "[8]": {"biological_target": "Signal transducer and activator of transcription 3 (Homo sapiens) (UniProt P40763)", "test": "Inhibition of STAT3 in human SK-OV-3 cells assessed as downregulation of Mcl-1 expression at 0.1 to 0.4 uM incubated for 24 hrs by Western blotting analysis", "type": "cell-based", "conditions": "dose 0.1-0.4 µM"}, "[9]": {"biological_target": "Signal transducer and activator of transcription 3 (Homo sapiens) (UniProt P40763)", "test": "Inhibition of STAT3 in human A2780 cells assessed as downregulation of STAT3 expression in nuclei at 0.2 uM incubated for 24 hrs by Hoechst33342 staining based immunofluorescence assay", "type": "cell-based"}, "[10]": {"biological_target": "Signal transducer and activator of transcription 3 (Homo sapiens) (UniProt P40763)", "test": "Inhibition of STAT3 in human A2780 cells assessed as downregulation of STAT3 phosphorylation at Ser727 residue in nuclei at 0.2 uM incubated for 24 hrs by Hoechst33342 staining based immunofluorescence assay", "type": "cell-based"}, "SK-OV-3 [11]": {"tested_on": "SK-OV-3", "test": "Induction of cell cycle arrest in human SK-OV-3 cells assessed as accumulation of cells at G0/G1 phase at 0.4 uM incubated for 24 hrs by BrdU staining based flow cytometry (reference value: 59.8 %)", "type": "functional"}, "SK-OV-3 [12]": {"tested_on": "SK-OV-3", "test": "Induction of cell cycle arrest in human SK-OV-3 cells assessed as accumulation of cells at S phase at 0.2 uM incubated for 24 hrs by BrdU staining based flow cytometry (reference value: 33.6 %)", "type": "functional"}, "SK-OV-3 [13]": {"tested_on": "SK-OV-3", "test": "Induction of cell cycle arrest in human SK-OV-3 cells assessed as accumulation of cells at G2/M phase at 0.4 uM incubated for 24 hrs by BrdU staining based flow cytometry (reference value: 6.3 %)", "type": "functional"}, "A2780 [14]": {"tested_on": "A2780", "test": "Induction of cell cycle arrest in human A2780 cells assessed as accumulation of cells at G0/G1 phase at 0.4 uM incubated for 24 hrs by BrdU staining based flow cytometry (reference value: 42.4 %)", "type": "functional"}, "A2780 [15]": {"tested_on": "A2780", "test": "Induction of cell cycle arrest in human A2780 cells assessed as accumulation of cells at G2/M phase at 0.8 uM incubated for 24 hrs by BrdU staining based flow cytometry (reference value: 6.2 %)", "type": "functional"}, "SK-OV-3 [16]": {"tested_on": "SK-OV-3", "test": "Induction of cell cycle arrest in human SK-OV-3 cells assessed as reduction of CDK2 expression at 0.2 uM incubated for 24 hrs by flow cytometry (reference value: 94.4 %)", "type": "functional", "set-up": "scale not given: the % may be the effect or the level left"}, "SK-OV-3 [17]": {"tested_on": "SK-OV-3", "test": "Induction of cell cycle arrest in human SK-OV-3 cells assessed as reduction of CDK4 expression at 0.4 uM incubated for 24 hrs by flow cytometry (reference value: 66.8 %)", "type": "functional", "set-up": "scale not given: the % may be the effect or the level left"}, "SK-OV-3 [18]": {"tested_on": "SK-OV-3", "test": "Induction of cell cycle arrest in human SK-OV-3 cells assessed as reduction of Cyclin D1 expression at 0.8 uM incubated for 24 hrs by flow cytometry (reference value: 93.8 %)", "type": "functional", "set-up": "scale not given: the % may be the effect or the level left"}, "A2780 [19]": {"tested_on": "A2780", "test": "Induction of cell cycle arrest in human A2780 cells assessed as reduction of CDK2 expression at 0.4 uM incubated for 24 hrs by flow cytometry (reference value: 92.5 %)", "type": "functional", "set-up": "scale not given: the % may be the effect or the level left"}, "SK-OV-3 [20]": {"tested_on": "SK-OV-3", "test": "Induction of apoptosis in human SK-OV-3 cells assessed as viable cells at 0.2 uM incubated for 24 hrs by Annexin V-FITC/7-AAD staining based flow cytometry (reference value: 94.6 %)", "type": "functional", "conditions": "read-out: Activity"}, "SK-OV-3 [21]": {"tested_on": "SK-OV-3", "test": "Induction of apoptosis in human SK-OV-3 cells assessed as viable cells at 0.4 uM incubated for 24 hrs by Annexin V-FITC/7-AAD staining based flow cytometry (reference value: 94.6 %)", "type": "functional", "conditions": "read-out: Activity"}, "A2780 [22]": {"tested_on": "A2780", "test": "Induction of apoptosis in human A2780 cells assessed as viable cells at 0.8 uM incubated for 24 hrs by Annexin V-FITC/7-AAD staining based flow cytometry (reference value: 95 %)", "type": "functional", "conditions": "read-out: Activity"}, "A2780 [23]": {"tested_on": "A2780", "test": "Induction of apoptosis in human A2780 cells assessed as early apoptotic cells at 0.2 uM incubated for 24 hrs by Annexin V-FITC/7-AAD staining based flow cytometry (reference value: 1.9 %)", "type": "functional"}, "A2780 [24]": {"tested_on": "A2780", "test": "Induction of apoptosis in human A2780 cells assessed as late apoptotic cells at 0.2 uM incubated for 24 hrs by Annexin V-FITC/7-AAD staining based flow cytometry (reference value: 2.1 %)", "type": "functional"}, "Mitochondrial membrane [25]": {"tested_on": "Mitochondrial membrane", "test": "Induction of mitochondrial membrane potential loss in human SK-OV-3 cells at 0.4 uM incubated for 24 hrs by JC-1 staining based flow cytometry (reference value: 73.6 %)"}, "Mitochondrial membrane [26]": {"tested_on": "Mitochondrial membrane", "test": "Induction of mitochondrial membrane potential loss in human A2780 cells at 0.1 uM incubated for 24 hrs by JC-1 staining based flow cytometry (reference value: 81 %)"}, "SK-OV-3 [27]": {"tested_on": "SK-OV-3", "test": "Induction of apoptosis in human SK-OV-3 cells assessed as increase in caspase-3 activity at 0.8 uM incubated for 24 hrs by flow cytometry (reference value: 4.6 %)", "type": "functional"}, "A2780 [28]": {"tested_on": "A2780", "test": "Induction of apoptosis in human A2780 cells assessed as increase in caspase-3 activity at 0.8 uM incubated for 24 hrs by flow cytometry (reference value: 1.5 %)", "type": "functional"}, "SK-OV-3 [29]": {"tested_on": "SK-OV-3", "test": "Inhibition of cell migration in human SK-OV-3 cells assessed as reduction in number of migrated cells at 0.1 to 0.4 uM incubated for 24 hrs by crystal violet staining based transwell assay", "type": "functional", "conditions": "dose 0.1-0.4 µM"}, "SK-OV-3 [30]": {"tested_on": "SK-OV-3", "test": "Inhibition of cell invasion in human SK-OV-3 cells incubated for 24 hrs by crystal violet staining based transwell assay", "type": "functional"}, "SK-OV-3 [31]": {"tested_on": "SK-OV-3", "test": "Inhibition of cell migration in human SK-OV-3 cells assessed as downregulation of FAK expression at 0.1 to 0.4 uM incubated for 24 hrs by Western blotting analysis", "type": "functional, cell-based", "conditions": "dose 0.1-0.4 µM"}, "SK-OV-3 [32]": {"tested_on": "SK-OV-3", "test": "Antitumor activity against human SK-OV-3 cells xenografted in BALB/c mouse assessed as reduction in tumor weight at 2 mg/kg,ip administrated for 21 consecutive days", "type": "functional, organism-based"}, "[33]": {"test": "Toxicity in BALB/c mouse xenografted with human SK-OV-3 cells assessed as pathological change in spleen at 2 to 5 mg/kg,ip administrated for 21 consecutive days by hematoxylin and eosin staining based assay", "type": "organism-based", "conditions": "in vivo, dose 2-5 mg/kg"}, "[34]": {"test": "Toxicity in BALB/c mouse xenografted with human SK-OV-3 cells assessed as pathological change in lung at 2 to 5 mg/kg,ip administrated for 21 consecutive days by hematoxylin and eosin staining based assay", "type": "organism-based", "conditions": "in vivo, dose 2-5 mg/kg"}}, "note": "Calls of active or inactive are those of the source. The calls are words filed in the database; no cut-off is given here."}
{"smiles": "CC1=C(O)C(=O)C=C2C1=CC=C1[C@@]2(C)CC[C@@]2(C)[C@@H]3C[C@](C)(C(=O)N4CCNCC4)CC[C@]3(C)CC[C@]12C", "values": [{"measurement": "IC50 at 72 h", "setting": "[1]", "value": 1010, "unit": "nM"}, {"measurement": "inhibition", "setting": "SK-OV-3 [2]", "value": "Dose-dependent-effect"}, {"measurement": "inhibition", "setting": "SK-OV-3 [3]", "value": "Dose-dependent-effect"}, {"measurement": "inhibition", "setting": "A2780 [4]", "value": "Dose-dependent-effect"}, {"measurement": "inhibition", "setting": "SK-OV-3 [5]", "value": "Active"}, {"measurement": "Activity", "setting": "A2780 [6]", "value": 0.37, "unit": "%"}, {"measurement": "inhibition", "setting": "[7]", "value": "Dose-dependent-effect"}, {"measurement": "inhibition", "setting": "[8]", "value": "Active"}, {"measurement": "inhibition", "setting": "[9]", "value": "Active"}, {"measurement": "inhibition", "setting": "[10]", "value": "Active"}, {"measurement": "Activity", "setting": "SK-OV-3 [11]", "value": 49.2, "unit": "%"}, {"measurement": "Activity", "setting": "SK-OV-3 [12]", "value": 33.8, "unit": "%"}, {"measurement": "Activity", "setting": "SK-OV-3 [13]", "value": 7.4, "unit": "%"}, {"measurement": "Activity", "setting": "A2780 [14]", "value": 64.7, "unit": "%"}, {"measurement": "Activity", "setting": "A2780 [15]", "value": 24.3, "unit": "%"}, {"measurement": "Activity", "setting": "SK-OV-3 [16]", "value": 91.1, "unit": "%"}, {"measurement": "Activity", "setting": "SK-OV-3 [17]", "value": 70.6, "unit": "%"}, {"measurement": "Activity", "setting": "SK-OV-3 [18]", "value": 53.1, "unit": "%"}, {"measurement": "Activity", "setting": "A2780 [19]", "value": 69.9, "unit": "%"}, {"measurement": "viability at 0.2 µM", "setting": "SK-OV-3 [20]", "value": 74.2, "unit": "%"}, {"measurement": "viability at 0.4 µM", "setting": "SK-OV-3 [21]", "value": 64.4, "unit": "%"}, {"measurement": "viability at 0.8 µM", "setting": "A2780 [22]", "value": 24.5, "unit": "%"}, {"measurement": "Activity", "setting": "A2780 [23]", "value": 4.4, "unit": "%"}, {"measurement": "Activity", "setting": "A2780 [24]", "value": 5.3, "unit": "%"}, {"measurement": "Activity", "setting": "Mitochondrial membrane [25]", "value": 17.2, "unit": "%"}, {"measurement": "Activity", "setting": "Mitochondrial membrane [26]", "value": 56.4, "unit": "%"}, {"measurement": "Activity", "setting": "SK-OV-3 [27]", "value": 33.8, "unit": "%"}, {"measurement": "Activity", "setting": "A2780 [28]", "value": 70.7, "unit": "%"}, {"measurement": "inhibition", "setting": "SK-OV-3 [29]", "value": "Active"}, {"measurement": "inhibition", "setting": "SK-OV-3 [30]", "value": "Dose-dependent-effect"}, {"measurement": "inhibition", "setting": "SK-OV-3 [31]", "value": "Active"}, {"measurement": "Activity", "setting": "SK-OV-3 [32]", "value": "Active"}, {"measurement": "Activity", "setting": "[33]", "value": "Non-toxic"}, {"measurement": "Activity", "setting": "[34]", "value": "Non-toxic"}]}
